Experimental data reported in patent US20240285621A1, “PYRAZOLYL-PYRIMIDINE DERIVATIVES AS KINASE INHIBITORS” (NERVIANO MEDICAL SCIENCES S.R.L., priority 2020, published 2024).
Where a name gives a salt, the structure may show the parent alone.

Each molecule was assayed against T1, SYK (Homo sapiens, UniProt P43405) (assay: Biochemical kinase inhibition assay on SYK, KinaseGlo assay format). Details: Table A; KinaseGlo format, pre-activated SYK 2.5 nM, ATP 2.5 μM, substrate BioDBn*327 125 uM, 60 minutes at rt; read-out: IC50 (μM) Kglo.
T1 construct: Recombinant proteins SYK FL was produced at NMS via baculo virus infection in insect cells; His; GST; made in house; host or cells: insect cells (baculovirus)

Compound	IC50
COc1cc(F)cc(Nc2nccc(-c3cc(C(=O)N[C@@H](C)CN4CCC4)n(C)n3)n2)c1 [Example 48, N-[(2S)-1-(azetidin-1-yl)propan-2-yl]-3-{2-[(3-fluoro-5-methoxyphenyl)amino]pyrimidin-4-yl}-1-methyl-1H-pyrazole-5-carboxamide]	0.006 µM
COc1cc(F)cc(Nc2nccc(-c3cc(C(=O)N[C@@H](C)CN(C)C)n(C)n3)n2)c1 [Example 65, N-[(2S)-1-(dimethylamino)propan-2-yl]-3-{2-[(3-fluoro-5-methoxyphenyl)amino]pyrimidin-4-yl}-1-methyl-1H-pyrazole-5-carboxamide]	0.009 µM
COc1cc(Nc2nccc(-c3cc(C(=O)N[C@@H](C)CN(C)C)n(C)n3)n2)cc(OC)c1 [Example 67, 3-{2-[(3,5-dimethoxyphenyl)amino]pyrimidin-4-yl}-N-[(2S)-1-(dimethylamino)propan-2-yl]-1-methyl-1H-pyrazole-5-carboxamide]	< 0.004 µM
COc1cc(Nc2nccc(-c3cc(C(=O)N[C@@H](C)CN4CCCC4)n(C)n3)n2)cc(OC)c1 [Example 69, 3-{2-[(3,5-dimethoxyphenyl)amino]pyrimidin-4-yl}-1-methyl-N-[(2S)-1-(pyrrolidin-1-yl)propan-2-yl]-1H-pyrazole-5-carboxamide]	0.008 µM
Cc1cc(C)cc(Nc2nccc(-c3cc(C(=O)N4CC[C@H](N(C)C)C4)n(C)n3)n2)c1 [Example 86, [(3S)-3-(dimethylamino)pyrrolidin-1-yl](3-{2-[(3,5-dimethylphenyl)amino]pyrimidin-4-yl}-1-methyl-1H-pyrazol-5-yl)methanone]	0.471 µM
Cc1cc(C)cc(Nc2nccc(-c3cc(C(=O)N4CCC(N)C4)n(C)n3)n2)c1 (centres unmarked) [Example 88, (3-aminopyrrolidin-1-yl)(3-{2-[(3,5-dimethylphenyl)amino]pyrimidin-4-yl}-1-methyl-1H-pyrazol-5-yl)methanone]	0.051 µM
Cc1cc(C)cc(Nc2nccc(-c3cc(C(=O)N4CCC[C@H]4CO)n(C)n3)n2)c1 [Example 89, (3-{2-[(3,5-dimethylphenyl)amino]pyrimidin-4-yl}-1-methyl-1H-pyrazol-5-yl)[(2S)-2-(hydroxymethyl)pyrrolidin-1-yl]methanone]	0.219 µM
Cc1cc(C)cc(Nc2nccc(-c3cc(C(=O)N4CC[C@H](O)C4)n(C)n3)n2)c1 [Example 90, (3-{2-[(3,5-dimethylphenyl)amino]pyrimidin-4-yl}-1-methyl-1H-pyrazol-5-yl)[(3S)-3-hydroxypyrrolidin-1-yl]methanone]	0.156 µM
Cc1cc(C)cc(Nc2nccc(-c3cc(C(=O)N[C@@H]4CCCC[C@@H]4O)n(C)n3)n2)c1 [Example 91, 3-{2-[(3,5-dimethylphenyl)amino]pyrimidin-4-yl}-N-[(1R,2S)-2-hydroxycyclohexyl]-1-methyl-1H-pyrazole-5-carboxamide]	0.035 µM
Cc1c(C)n(C)c2ccc(Nc3nccc(-c4cc(C(=O)N[C@@H](C)CO)n(C)n4)n3)cc12 [Example 93, N-[(2S)-1-hydroxypropan-2-yl]-1-methyl-3-{2-[(1,2,3-trimethyl-1H-indol-5-yl)amino]pyrimidin-4-yl}-1H-pyrazole-5-carboxamide]	0.137 µM
Cc1cc(C)cc(Nc2nccc(-c3cc(C(=O)N4C[C@H]5C[C@H]4CN5)n(C)n3)n2)c1 [Example 96, (1S,4R)-2,5-diazabicyclo[2.2.1]hept-2-yl(3-{2-[(3,5-dimethylphenyl)amino]pyrimidin-4-yl}-1-methyl-1H-pyrazol-5-yl)methanone hydrochloride]	0.07 µM
Cn1nc(-c2ccnc(Nc3cc(Cl)cc(Cl)c3)n2)cc1C(=O)N[C@H]1CCCC[C@H]1N [Example 99, N-[(1S,2R)-2-aminocyclohexyl]-3-{2-[(3,5-dichlorophenyl)amino]pyrimidin-4-yl}-1-methyl-1H-pyrazole-5-carboxamide hydrochloride]	0.011 µM
COc1cc(Nc2nccc(-c3cc(C(=O)N[C@H]4CCCC[C@H]4N)n(C)n3)n2)cc(OC)c1 [Example 100, N-[(1S,2R)-2-aminocyclohexyl]-3-{2-[(3,5-dimethoxyphenyl)amino]pyrimidin-4-yl}-1-methyl-1H-pyrazole-5-carboxamide hydrochloride]	0.011 µM
Cc1cc(C)cc(Nc2nccc(-c3cc(C(=O)N[C@H]4CCCC[C@H]4N)[nH]n3)n2)c1 [Example 104, N-[(1S,2R)-2-aminocyclohexyl]-3-{2-[(3,5-dimethylphenyl)amino]pyrimidin-4-yl}-1H-pyrazole-5-carboxamide hydrochloride]	< 0.004 µM
Cc1cc(C)cc(Nc2nccc(-c3cc(C(=O)N[C@H](CN4CCC4)C(C)C)[nH]n3)n2)c1 [Example 105, N-[(2S)-1-(azetidin-1-yl)-3-methylbutan-2-yl]-3-{2-[(3,5-dimethylphenyl)amino]pyrimidin-4-yl}-1H-pyrazole-5-carboxamide]	0.012 µM
Cc1cc(C)cc(Nc2nccc(-c3cc(C(=O)N[C@H](CN4CCCC4)c4ccccc4)n(C)n3)n2)c1 [Example 107, 3-{2-[(3,5-dimethylphenyl)amino]pyrimidin-4-yl}-1-methyl-N-[(1S)-1-phenyl-2-(pyrrolidin-1-yl)ethyl]-1H-pyrazole-5-carboxamide]	0.026 µM
C[C@@H](CO)NC(=O)c1cc(-c2ccnc(Nc3ccc(N4CCN(C)CC4)c(Cl)c3)n2)nn1C [Example 110, 3-(2-{[3-chloro-4-(4-methylpiperazin-1-yl)phenyl]amino}pyrimidin-4-yl)-N-[(2S)-1-hydroxypropan-2-yl]-1-methyl-1H-pyrazole-5-carboxamide]	0.452 µM

Continued, values first:

IC50	Compound
0.144 µM	CC(C)[C@@H](CO)NC(=O)c1cc(-c2ccnc(Nc3ccc(N4CCN(C)CC4)c(Cl)c3)n2)nn1C [Example 111, 3-(2-{[3-chloro-4-(4-methylpiperazin-1-yl)phenyl]amino}pyrimidin-4-yl)-N-[(2S)-1-hydroxy-3-methylbutan-2-yl]-1-methyl-1H-pyrazole-5-carboxamide]
0.023 µM	Cc1cccc(Nc2nccc(-c3cc(C(=O)N[C@H](CN4CCCC4)C(C)C)n(C)n3)n2)c1 [Example 112, 1-methyl-3-{2-[(3-methylphenyl)amino]pyrimidin-4-yl}-N-[(2S)-3-methyl-1-(pyrrolidin-1-yl)butan-2-yl]-1H-pyrazole-5-carboxamide]
0.061 µM	Cn1nc(-c2ccnc(Nc3cc(F)cc(F)c3)n2)cc1C(=O)N[C@H]1CCCC[C@@H]1N [Example 113, N-[(1S,2S)-2-aminocyclohexyl]-3-{2-[(3,5-difluorophenyl)amino]pyrimidin-4-yl}-1-methyl-1H-pyrazole-5-carboxamide]
0.191 µM	CN1CCN(c2ccc(Nc3nccc(-c4cc(C(=O)N[C@H]5CCCC[C@H]5O)n(C)n4)n3)cc2Cl)CC1 [Example 114, 3-(2-{[3-chloro-4-(4-methylpiperazin-1-yl)phenyl]amino}pyrimidin-4-yl)-N-[(1S,2R)-2-hydroxycyclohexyl]-1-methyl-1H-pyrazole-5-carboxamide]
0.023 µM	Cc1cc(C)cc(Nc2nccc(-c3cc(C(=O)N[C@H]4CCCC[C@H]4O)n(C)n3)n2)c1 [Example 115, 3-{2-[(3,5-dimethylphenyl)amino]pyrimidin-4-yl}-N-[(1S,2R)-2-hydroxycyclohexyl]-1-methyl-1H-pyrazole-5-carboxamide]
0.011 µM	Cn1nc(-c2ccnc(Nc3cc(Cl)cc(Cl)c3)n2)cc1C(=O)N[C@H]1CCCC[C@@H]1N [Example 116, N-[(1S,2S)-2-aminocyclohexyl]-3-{2-[(3,5-dichlorophenyl)amino]pyrimidin-4-yl}-1-methyl-1H-pyrazole-5-carboxamide]
0.007 µM	CC(C)[C@@H](CN1CCCC1)NC(=O)c1cc(-c2ccnc(Nc3cc(Cl)cc(Cl)c3)n2)nn1C [Example 117, 3-{2-[(3,5-dichlorophenyl)amino]pyrimidin-4-yl}-1-methyl-N-[(2S)-3-methyl-1-(pyrrolidin-1-yl)butan-2-yl]-1H-pyrazole-5-carboxamide]
0.045 µM	Cc1cc(C)cc(Nc2nccc(-c3cc(C(=O)N[C@H]4CCCC[C@@H]4O)n(C)n3)n2)c1 [Example 118, 3-{2-[(3,5-dimethylphenyl)amino]pyrimidin-4-yl}-N-[(1S,2S)-2-hydroxycyclohexyl]-1-methyl-1H-pyrazole-5-carboxamide]
0.027 µM	CCn1nc(-c2ccnc(Nc3cc(C)cc(C)c3)n2)cc1C(=O)N[C@H]1CCCC[C@H]1O [Example 120, 3-{2-[(3,5-dimethylphenyl)amino]pyrimidin-4-yl}-1-ethyl-N-[(1S,2R)-2-hydroxycyclohexyl]-1H-pyrazole-5-carboxamide]
0.012 µM	CCn1nc(-c2ccnc(Nc3cc(C)cc(C)c3)n2)cc1C(=O)N[C@H]1CCCC[C@H]1N [Example 121, N-[(1S,2R)-2-aminocyclohexyl]-3-{2-[(3,5-dimethylphenyl)amino]pyrimidin-4-yl}-1-ethyl-1H-pyrazole-5-carboxamide hydrochloride]
0.06 µM	CCn1nc(-c2ccnc(Nc3cc(C)cc(C)c3)n2)cc1C(=O)N[C@@H]1CCCNC1 [Example 122, 3-{2-[(3,5-dimethylphenyl)amino]pyrimidin-4-yl}-1-ethyl-N-[(3R)-piperidin-3-yl]-1H-pyrazole-5-carboxamide hydrochloride]

Same assay, conditions: Table B; reference compounds of WO2012/139930, KinaseGlo format on Syk; read-out: IC50 (μM) Kglo

IC50	Compound
> 10 µM	CCc1cccc(CC)c1NC(=O)c1cc(-c2ccnc(Nc3ccccc3OC)n2)n(C)n1 [compound 7, reference compound]
> 10 µM	CCc1cccc(CC)c1NC(=O)c1cc(-c2ccnc(Nc3ccccc3OC)n2)[nH]n1 [compound 14, reference compound]
> 10 µM	CNC(=O)c1cc(-c2ccnc(N(C)C)n2)n(C(C)(C)C)n1 [compound 39, reference compound]

Each molecule was assayed against T1, SYK (assay: Biochemical kinase inhibition assay on SYK, ADPGlo assay format). Details: Table A, pre-activated SYK 0.6 nM, ATP 60 μM, BioDBn*327 125 μM, 60 minutes at room temperature.

IC50	Compound
0.023 µM	COc1cc(F)cc(Nc2nccc(-c3cc(C(=O)N[C@@H](C)CN4CCC4)n(C)n3)n2)c1 [Example 48, N-[(2S)-1-(azetidin-1-yl)propan-2-yl]-3-{2-[(3-fluoro-5-methoxyphenyl)amino]pyrimidin-4-yl}-1-methyl-1H-pyrazole-5-carboxamide]
0.038 µM	COc1cc(F)cc(Nc2nccc(-c3cc(C(=O)N[C@@H](C)CN(C)C)n(C)n3)n2)c1 [Example 65, N-[(2S)-1-(dimethylamino)propan-2-yl]-3-{2-[(3-fluoro-5-methoxyphenyl)amino]pyrimidin-4-yl}-1-methyl-1H-pyrazole-5-carboxamide]
0.014 µM	COc1cc(Nc2nccc(-c3cc(C(=O)N[C@@H](C)CN(C)C)n(C)n3)n2)cc(OC)c1 [Example 67, 3-{2-[(3,5-dimethoxyphenyl)amino]pyrimidin-4-yl}-N-[(2S)-1-(dimethylamino)propan-2-yl]-1-methyl-1H-pyrazole-5-carboxamide]
0.01 µM	COc1cc(Nc2nccc(-c3cc(C(=O)N[C@@H](C)CN4CCCC4)n(C)n3)n2)cc(OC)c1 [Example 69, 3-{2-[(3,5-dimethoxyphenyl)amino]pyrimidin-4-yl}-1-methyl-N-[(2S)-1-(pyrrolidin-1-yl)propan-2-yl]-1H-pyrazole-5-carboxamide]
